Test results from ChEMBL document CHEMBL3885861, “Open TG-GATES”.

Species: Rattus norvegicus
Assay: Open TG-GATES - Regimen: Single
Type: toxicity, organism-based, Sprague-Dawley
Design: regimen Single, gender Male, age 6 weeks
Conditions: in vivo, po, 500 mg/kg, route gavage, dose level High; for APTT / Bas / Eos / Fbg / Hb / Ht / Lym / MCH / MCHC / MCV / Mono / Neu / PT / Plat / RBC / Ret / WBC: tissue Blood; for KIDNEY_L / KIDNEY_R / KIDNEY_TOTAL: tissue Kidney; for LIVER: tissue Liver; for A/G / ALP / ALT / AST / BUN / CRE / Ca / Cl / DBIL / GLC / IP / K / LDH / Na / PL / RALB / TBIL / TC / TG / TP / gamma-GTP: tissue Plasma

## CC(=O)Oc1cc(C(C)C)c(OCCN(C)C)cc1C [MOXISYLYTE]
3 h
  TERMINAL_BW: 212.3 g
  APTT: 21.6 s
  Bas: 0%
  Eos: 1.2%
  Fbg: 311.2 mg/dL
  Hb: 12.6 g/dL
  Ht: 37.4%
  Lym: 72.6%
  MCH: 21.4 pg
  MCHC: 33.7%
  MCV: 63.2 fL
  Mono: 2%
  Neu: 23.6%
  PT: 16 s
  Plat: 115.9 x10_4/uL
  RBC: 590.6 x10_4/ul
  Ret: 8.3%
  WBC: 64.3 x10_2/uL
  KIDNEY_L: 0.9 g
  KIDNEY_R: 1 g
  KIDNEY_TOTAL: 1.9 g
  LIVER: 9.7 g
  A/G: 1.4
  ALP: 1326.8 IU/L
  ALT: 43 IU/L
  AST: 81.6 IU/L
  BUN: 14.6 mg/dL
  CRE: 0.1 mg/dL
  Ca: 10.6 mg/dL
  Cl: 107.8 meq/L
  DBIL: 0.014 mg/dL
  GLC: 196.8 mg/dL
  IP: 10.3 mg/dL
  K: 4.5 meq/L
  LDH: 251 IU/L
  Na: 142.2 meq/L
  PL: 132.2 mg/dL
  RALB: 3.1 g/dL
  TBIL: 0.028 mg/dL
  TC: 79 mg/dL
  TG: 33.8 mg/dL
  TP: 5.5 g/dL
  gamma-GTP: 1 IU/L
6 h
  TERMINAL_BW: 211.5 g
  APTT: 21.2 s
  Bas: 0%
  Eos: 1%
  Fbg: 318.6 mg/dL
  Hb: 13 g/dL
  Ht: 38%
  Lym: 77%
  MCH: 21.2 pg
  MCHC: 34.1%
  MCV: 62.1 fL
  Mono: 2.2%
  Neu: 19.2%
  PT: 15.6 s
  Plat: 119.7 x10_4/uL
  RBC: 611.8 x10_4/ul
  Ret: 8.1%
  WBC: 63.2 x10_2/uL
  KIDNEY_L: 1 g
  KIDNEY_R: 1 g
  KIDNEY_TOTAL: 2 g
  LIVER: 9.8 g
  A/G: 1.3
  ALP: 1572.4 IU/L
  ALT: 40.6 IU/L
  AST: 75.2 IU/L
  BUN: 11.8 mg/dL
  CRE: 0.1 mg/dL
  Ca: 10.5 mg/dL
  Cl: 107.8 meq/L
  DBIL: 0.014 mg/dL
  GLC: 194.2 mg/dL
  IP: 10 mg/dL
  K: 4.5 meq/L
  LDH: 239 IU/L
  Na: 141 meq/L
  PL: 141.6 mg/dL
  RALB: 3.1 g/dL
  TBIL: 0.026 mg/dL
  TC: 75.4 mg/dL
  TG: 42.4 mg/dL
  TP: 5.5 g/dL
  gamma-GTP: 1.2 IU/L
9 h
  TERMINAL_BW: 205.5 g
  APTT: 20.8 s
  Bas: 0%
  Eos: 0.8%
  Fbg: 351 mg/dL
  Hb: 13.6 g/dL
  Ht: 40.1%
  Lym: 69.2%
  MCH: 21.4 pg
  MCHC: 33.9%
  MCV: 63.3 fL
  Mono: 2.6%
  Neu: 27.4%
  PT: 15.8 s
  Plat: 124.5 x10_4/uL
  RBC: 633.8 x10_4/ul
  Ret: 7.8%
  WBC: 68.7 x10_2/uL
  KIDNEY_L: 0.9 g
  KIDNEY_R: 1 g
  KIDNEY_TOTAL: 1.9 g
  LIVER: 9.1 g
  A/G: 1.2
  ALP: 1633.4 IU/L
  ALT: 41 IU/L
  AST: 76.6 IU/L
  BUN: 11.4 mg/dL
  CRE: 0.1 mg/dL
  Ca: 10.4 mg/dL
  Cl: 108.6 meq/L
  DBIL: 0.018 mg/dL
  GLC: 196.6 mg/dL
  IP: 9.9 mg/dL
  K: 4.3 meq/L
  LDH: 223.6 IU/L
  Na: 142.2 meq/L
  PL: 142 mg/dL
  RALB: 3.1 g/dL
  TBIL: 0.034 mg/dL
  TC: 74.8 mg/dL
  TG: 49.4 mg/dL
  TP: 5.7 g/dL
  gamma-GTP: 1.2 IU/L
24 h
  TERMINAL_BW: 215.6 g
  APTT: 19.4 s
  Bas: 0%
  Eos: 0.8%
  Fbg: 300.6 mg/dL
  Hb: 13.4 g/dL
  Ht: 38.6%
  Lym: 76.4%
  MCH: 22.1 pg
  MCHC: 34.7%
  MCV: 63.6 fL
  Mono: 2%
  Neu: 20%
  PT: 15.8 s
  Plat: 140.3 x10_4/uL
  RBC: 607.2 x10_4/ul
  Ret: 8.2%
  WBC: 111.6 x10_2/uL
  KIDNEY_L: 1 g
  KIDNEY_R: 1 g
  KIDNEY_TOTAL: 1.9 g
  LIVER: 10.4 g
  A/G: 1.2
  ALP: 1455.6 IU/L
  ALT: 44.8 IU/L
  AST: 73.4 IU/L
  BUN: 18 mg/dL
  CRE: 0.1 mg/dL
  Ca: 11.1 mg/dL
  Cl: 106.4 meq/L
  DBIL: 0 mg/dL
  GLC: 176.8 mg/dL
  IP: 8.6 mg/dL
  K: 4.1 meq/L
  LDH: 241 IU/L
  Na: 142 meq/L
  PL: 149.8 mg/dL
  RALB: 3 g/dL
  TBIL: 0.006 mg/dL
  TC: 77 mg/dL
  TG: 100.6 mg/dL
  TP: 5.6 g/dL
  gamma-GTP: 1 IU/L
